Test results: patent publication US10927146B2, “Peptidyl ketoamides as inhibitors of rhomboid proteases” (priority 2017, dated 2021)
Entries after “also recorded” stand apart in the source; their conditions may differ.

How the values were obtained:
[1] = molecular target: model rhomboid protease GlpG (Escherichia coli, UniProt P09391); assay: In vitro inhibition of rhomboid protease GlpG (IC50 and Ki, as described in Ticha et al., 2017); format: biochemical, E. coli; details: for Ki: read-out: Ki Range
Excerpt: The in vivo activity of the compounds against GlpG according to the invention is in the low nanomolar range (FIG. 1), which is up to three orders of magnitude better than any other currently used rhomboid inhibitors. The co-crystal structures of these compounds with rhomboid protease (FIG. 2) show their mode of binding into the active site of rhomboid. Without wishing to be bound by such a theory, it appears that the ketoamide warhead covalently bonds to the catalytic serine, and extensively hydrogen bonds throughout the active site. The tail at the ketoamide nitrogen interacts with the S2′ pocket of rhomboid, engaging in a number of van der Waals contacts.

[2] = test system: Plasmodium falciparum rhomboid 4 (PfROM4); assay: PfROM4 cell culture assay: shedding of EBA175 in transfected HEK293ET cells; format: cell-based; details: HEK293ET cells transfected with PfROM4 and substrate EBA175; approximate, FIG. 3
Excerpt: (A) HEK293ET cells were transfected with plasmids encoding PfROM4 and its substrate EBA175, and the shedding of EBA175 by PfROM4 into the medium under various concentrations of Compound 16 was quantitated by near-infrared fluorescence detected Western blotting. (B) Dose-response analysis of PfROM4 inhibition by Compound 16.

Sequence of model rhomboid protease GlpG (P09391 whole entry): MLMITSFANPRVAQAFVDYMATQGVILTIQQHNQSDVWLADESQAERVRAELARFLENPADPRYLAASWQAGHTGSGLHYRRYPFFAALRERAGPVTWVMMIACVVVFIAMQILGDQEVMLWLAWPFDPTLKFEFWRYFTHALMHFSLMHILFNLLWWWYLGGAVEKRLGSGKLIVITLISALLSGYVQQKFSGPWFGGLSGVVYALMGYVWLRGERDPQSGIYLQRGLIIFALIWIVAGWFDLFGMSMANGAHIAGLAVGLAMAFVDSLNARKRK

Structure (SMILES): CC(=O)C(=O)[C@H](CCCNC(=N)N)NC(=O)[C@@H](NC(=O)[C@H](CCCNC(=N)N)NC(=O)[C@H](Cc1cnc[nH]1)NN[C@@H](C)C(=O)C(=O)NCCc1ccccc1)C(C)C [Compound 9]
- Ki [1]: 10 to 100 nM

Structure (SMILES): CC(=O)C(=O)[C@H](CCCNC(=N)N)NC(=O)[C@@H](NC(=O)[C@H](CCCNC(=N)N)NC(=O)[C@H](Cc1cnc[nH]1)NN[C@@H](C)C(=O)C(=O)NCc1cc(C)ccc1C)C(C)C [Compound 10]
- Ki [1]: 10 to 100 nM

Structure (SMILES): CC(=O)C(=O)[C@H](CCCNC(=N)N)NC(=O)[C@@H](NC(=O)[C@H](CCCNC(=N)N)NC(=O)[C@H](Cc1cnc[nH]1)NN[C@@H](C)C(=O)C(=O)NCCCCc1ccccc1)C(C)C [Compound 11]
- Ki [1]: 10 to 100 nM

Structure (SMILES): CC(=O)C(=O)[C@@H](NC(=O)[C@H](CCCNC(=N)N)NC(=O)[C@H](Cc1cnc[nH]1)NN[C@@H](C)C(=O)C(=O)NCCc1ccccc1)C(C)C [Compound 12]
- IC50 [1]: 550 nM

Structure (SMILES): CC(=O)C(=O)[C@H](CCCNC(=N)N)NC(=O)[C@@H](NC(=O)[C@H](Cc1c[nH]c2ccccc12)NC(=O)[C@H](Cc1cnc[nH]1)NN[C@@H](C)C(=O)C(=O)NCCCCc1ccccc1)C(C)C [Compound 16]
- IC50 of PfROM4 inhibition [2]: micro- to submicromolar range; also recorded: micromolar to submicromolar concentrations
